Results: patent US7495104B2, “Quinoline or quinazoline derivatives inhibiting auto-phosphorylation of fibroblast growth factor receptors” (Kirin Beer Kabushiki Kaisha, priority 2001, dated 2009)
Counter-ions that a name gives are not always drawn.

Molecular target: Bek (Homo sapiens, UniProt P21802)
Test: Inhibitory activity against Bek-autophosphorylation using ELISA method in OCUM-2MD3 cells
Format: cell-based
Settings: 1 hr with compound, read-out: IC50 (concentration necessary for inhibiting 50% of Bek-phosphorylation)
Outline: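 Sandwich ELISA (anti-phosphotyrosine capture, anti-Bek detection, peroxidase, 450 nm) measured Bek autophosphorylation in OCUM-2MD3 lysates after 1 hr compound treatment at 37° C in 0.1% serum medium. IC50 derived by scaling between no-drug (100%) and excess positive control at 1000 nM (0%).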

Bek, sequence (P21802 431-767 limits assumed): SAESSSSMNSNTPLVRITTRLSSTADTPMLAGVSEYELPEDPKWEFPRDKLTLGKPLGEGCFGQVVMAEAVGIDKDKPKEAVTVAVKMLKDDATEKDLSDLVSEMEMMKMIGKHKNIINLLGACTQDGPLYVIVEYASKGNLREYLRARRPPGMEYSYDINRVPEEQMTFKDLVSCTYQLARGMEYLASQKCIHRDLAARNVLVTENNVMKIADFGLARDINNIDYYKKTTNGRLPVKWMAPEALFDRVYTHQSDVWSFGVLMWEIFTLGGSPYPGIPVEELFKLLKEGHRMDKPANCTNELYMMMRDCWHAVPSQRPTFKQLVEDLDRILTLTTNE

Row | SMILES | IC50 [µM]
1 | COc1cc2c(Oc3ccc(NC(=O)NCCC(C)(C)C)c(Cl)c3)ccnc2cc1OCC1CCNCC1 [Compound 168, 1-{2-Chloro-4-[6-methoxy-7-(piperidin-4-ylmethoxy)-quinolin-4-yloxy]-phenyl}-3-(3,3-dimethyl-butyl)-urea] | 0.024
2 | COc1cc2nccc(Oc3ccc(NC(=O)NCCC(C)(C)C)c(Cl)c3)c2cc1OC [Compound 103, 1-[2-Chloro-4-(6,7-dimethoxyquinolin-4-yloxy)-phenyl]-3-(3,3-dimethyl-butyl)-urea] | 0.0298
3 | COc1cc2c(Oc3ccc(Nc4ccc(C(C)(C)C)cc4)cc3)ccnc2cc1OCCN1CCN(C)CC1 [Compound 33, (4-Tert-butylphenyl)-(4-{6-methoxy-7-[2-(4-methylpiperazin-1-yl)ethoxy]quinolin-4-yloxy}phenyl)amine] | 0.155
4 | COc1cc2c(Oc3ccc(Nc4ccc(C(C)(C)C)cc4)cc3)ccnc2cc1O [Compound 21, 4-[4-(4-Tert-butylphenylamino)phenoxy]-6-methoxy-quinolin-7-ol] | 0.328
5 | COc1cc2nccc(Oc3ccc(Nc4ccc(C(C)C)cc4)cc3)c2cc1OC [Compound 9, [4-(6,7-Dimethoxyquinolin-4-yloxy)phenyl]-(4-isopropylphenyl)-amine] | 0.313
6 | COc1cc2c(Oc3ccc(Nc4ccc(C(C)(C)C)cc4)cc3)ccnc2cc1OCCCN1CCCCC1 [Compound 34, (4-Tert-butylphenyl)-{4-[6-methoxy-7-(3-piperidin-1-ylpropoxy)-quinolin-4-yloxy]phenyl}amine] | 0.219
7 | COc1cc2c(Oc3ccc(NC(=O)NCCC(C)(C)C)c(Cl)c3)ccnc2cc1OCCN1CCCN(C)CC1 [Compound 186, 1-(2-Chloro-4-{6-methoxy-7-[2-(4-methyl-[1,4]diazepan-1-yl)-ethoxy]-quinolin-4-yloxy}-phenyl)-3-(3,3-dimethyl-butyl)-urea] | 0.0183
8 | COc1cc2c(Oc3ccc(Nc4ccc(C(C)(C)C)cc4)cc3)ccnc2cc1OCC(O)CN(C)C (stereo not shown) [Compound 67, 1-{4-[4-(4-Tert-butylphenylamino)phenoxy]-6-methoxyquinolin-7-yloxy}-3-dimethylaminopropan-2-ol] | 0.189
9 | COc1cc2c(Oc3ccc(Nc4ccc(C(C)(C)C)cc4)cc3)ccnc2cc1OCC(O)CN1CCN(C)CC1 (stereo not shown) [Compound 64, 1-{4-[4-(4-Tert-butylphenylamino)phenoxy]-6-methoxyquinolin-7-yloxy}-3-(4-methylpiperazin-1-yl)propan-2-ol] | 0.178
10 | COc1cc2nccc(Oc3ccc(Nc4ccc(C(C)(C)C)cc4)cc3)c2cc1O [Compound 214, 4-[4-(4-Tert-butyl-phenylamino)-phenoxy]-7-methoxy-quinolin-6-ol] | 0.0261
11 | COc1cc2c(Oc3ccc(NC(=O)NCCC(C)(C)C)cc3)ccnc2cc1OCCCCN1CCOCC1 [Compound 158, 1-(3,3-Dimethyl-butyl)-3-{4-[6-methoxy-7-(4-morpholin-4-yl-butoxy)-quinolin-4-yloxy]-phenyl}-urea hydrochloride] | 0.0321
12 | COc1cc2c(Oc3ccc(NC(=O)NCCC(C)(C)C)c(Cl)c3)ccnc2cc1OCCCN1CCC[C@H]1CO [Compound 208, 1-(2-Chloro-4-{7-[3-(2-hydroxymethyl-pyrrolidin-1-yl)-propoxy]-6-methoxy-quinolin-4-yloxy}-phenyl)-3-(3,3-dimethyl-butyl)-urea] | 0.027
13 | COC(=O)COc1cc2nccc(Oc3ccc(NC(=O)NCCC(C)(C)C)cc3)c2cc1OC [Compound 215, Methyl (4-{4-[3-(3,3-dimethyl-butyl)-ureido]-phenoxy}-6-methoxy-quinolin-7-yloxy)-acetate] | 0.341
14 | COc1cc2c(Oc3ccc(NC(=O)NCCC(C)(C)C)c(F)c3)ccnc2cc1OC(=O)N1CCC(N2CCCCC2)CC1 [Compound 230, 4-{4-[3-(3,3-Dimethyl-butyl)-ureido]-3-fluoro-phenoxy}-6-methoxy-quinolin-7-yl [1,4′]bipiperidineyl-1′-carboxylate] | 0.0321
15 | COc1cc2c(Oc3ccc(NC(=O)NCCC(C)(C)C)cc3)ccnc2cc1OCCN1CCOCC1 [Compound 112, 1-(3,3-Dimethyl-butyl)-3-{4-[6-methoxy-7-(2-morpholin-4-yl-ethoxy)-quinolin-4-yloxy]-phenyl}-urea hydrochloride] | 0.0521
16 | COc1cc2c(Oc3ccc(NC(=O)NCCC(C)(C)C)c(Cl)c3)ccnc2cc1OCCCCN1CCOCC1 [Compound 320, 1-{2-Chloro-4-[6-methoxy-7-(4-morpholin-4-yl-butoxy)-quinolin-4-yloxy]-phenyl}-3-(3,3-dimethyl-butyl)-urea] | 0.0214
17 | COc1cc2c(Oc3ccc(Nc4ccc(C(C)(C)C)cc4)cc3)ccnc2cc1OCCN1CCC(O)CC1 [Compound 82, 1-(2-{4-[4-(4-Tert-butylphenylamino)phenoxy]-6-methoxy-quinolin-7-yloxy}ethyl)piperidin-4-ol] | 0.0701
18 | COc1cc2nccc(Oc3ccc(Nc4ccc(F)cc4)cc3)c2cc1OC [Compound 4, [4-(6,7-Dimethoxyquinolin-4-yloxy)phenyl]-(4-fluorophenyl)amine] | 3.73
19 | COc1cc2c(Oc3ccc(NC(=O)NC4CCCC(C)(C)C4)c(F)c3)ccnc2cc1OCCN1CCOCC1 (stereo not shown) [Compound 133, 1-(3,3-Dimethyl-cyclohexyl)-3-{2-fluoro-4-[6-methoxy-7-(2-morpholin-4-yl-ethoxy)-quinolin-4-yloxy]-phenyl}-urea] | 0.0092
20 | COc1cc2nccc(Oc3ccc(NC(=O)NC(C)(C)CC(C)(C)C)cc3)c2cc1OC [Compound 143, 1-[4-(6,7-Dimethoxy-quinolin-4-yloxy)-phenyl]-3-(1,1,3,3-tetramethyl-butyl)-urea] | 0.192

The next lines start with the values.

Row | IC50 [µM] | SMILES
21 | 0.617 | COc1cc2c(Oc3ccc(Nc4ccc(C(C)(C)C)cc4)c(Cl)c3)ccnc2cc1OCCCN1CCC(CO)CC1 [Compound 277, [1-(3-{4-[4-(4-Tert-butyl-phenylamino)-3-chloro-phenoxy]-6-methoxy-quinolin-7-yloxy}-propyl)-piperidin-4-yl]-methanol]
22 | 0.037 | COc1cc2c(Oc3ccc(NC(=O)NCCC(C)(C)C)cc3)ccnc2cc1OCCN(C)CCO [Compound 328, 1-(3,3-Dimethyl-butyl)-3-[4-(7-{2-[(2-hydroxy-ethyl)-methyl-amino]-ethoxy}-6-methoxy-quinolin-4-yloxy)-phenyl]-urea]
23 | 0.0195 | COc1cc2c(Oc3ccc(NC(=O)NCCC(C)(C)C)cc3)ccnc2cc1OCCN(CC(C)O)CC(C)O (stereo not shown) [Compound 360, 1-[4-(7-{2-[Bis-(2-hydroxy-propyl)-amino]-ethoxy}-6-methoxy-quinolin-4-yloxy)-phenyl]-3-(3,3-dimethyl-butyl)-urea]
24 | 0.0498 | COc1cc2nccc(Oc3ccc(NC(=O)NCCC(C)(C)C)cc3)c2cc1OCCCN1CCOCC1 [Compound 223, 1-(3,3-Dimethyl-butyl)-3-{4-[7-methoxy-6-(3-morpholin-4-yl-propoxy)-quinolin-4-yloxy]-phenyl}-urea]
25 | 0.0094 | COc1cc2c(Oc3ccc(NC(=O)NCCC(C)(C)C)c(F)c3)ccnc2cc1OCCCN(C)CCO [Compound 333, 1-(3,3-Dimethyl-butyl)-3-[2-fluoro-4-(7-{3-[(2-hydroxy-ethyl)-methyl-amino]-propoxy}-6-methoxy-quinolin-4-yloxy)-phenyl]-urea]
26 | 0.0309 | COc1cc2c(Oc3ccc(NC(=O)NCCC(C)(C)C)cc3)ccnc2cc1OCCCN1CCC(c2ccccc2)CC1 [Compound 246, 1-(3,3-Dimethyl-butyl)-3-(4-{6-methoxy-7-[3-(4-phenyl-piperidin-1-yl)-propoxy]-quinolin-4-yloxy}-phenyl)-urea]
27 | < 0.01 | COc1cc2c(Oc3ccc(NC(=O)NCCC(C)(C)C)cc3)ccnc2cc1OCCCN1CC(C)OC(C)C1 (stereo not shown) [Compound 244, 1-(3,3-Dimethyl-butyl)-3-(4-{7-[3-(2,6-dimethyl-morpholin-4-yl)-propoxy]-6-methoxy-quinolin-4-yloxy}-phenyl)-urea]
28 | 0.403 | COc1cc2nccc(Oc3ccc(Nc4ccc(C(C)(C)C)cc4)cc3)c2cc1OCCN1CCC(CO)CC1 [Compound 355, [1-(2-{4-[4-(4-Tert-butyl-phenylamino)-phenoxy]-7-methoxy-quinolin-6-yloxy}-ethyl)-piperidin-4-yl]-methanol]
29 | 0.248 | COc1cc2c(Oc3ccc(Nc4ccc(C(C)(C)C)cc4)c(F)c3)ccnc2cc1OCCCN1CCC(O)CC1 [Compound 289, 1-(3-{4-[4-(4-Tert-butyl-phenylamino)-3-fluoro-phenoxy]-6-methoxy-quinolin-7-yloxy}-propyl)-piperidin-4-ol]
30 | 0.11 | COc1cc2c(Oc3ccc(Nc4ccc(C(C)(C)C)cc4)cc3)ccnc2cc1OCC(O)CN1CCC(N2CCCCC2)CC1 (stereo not shown) [Compound 258, 1-[1,4′]Bipiperidineyl-1′-yl-3-{4-[4-(4-tert-butyl-phenylamino)-phenoxy]-6-methoxy-quinolin-7-yloxy}-propan-2-ol]
31 | 0.0301 | COc1cc2c(Oc3ccc(NC(=O)NCCC(C)(C)C)c(Cl)c3)ccnc2cc1OCCNCCO [Compound 331, 1-(2-Chloro-4-{7-[2-(2-hydroxy-ethylamino)-ethoxy]-6-methoxy-quinolin-4-yloxy}-phenyl)-3-(3,3-dimethyl-butyl)-urea]
32 | 0.0959 | COc1cc2c(Oc3ccc(Nc4ccc(C(C)(C)C)cc4)cc3)ccnc2cc1OCCN(CCO)CCO [Compound 349, 2-[(2-{4-[4-(4-Tert-butyl-phenylamino)-phenoxy]-6-methoxy-quinolin-7-yloxy}-ethyl)-(2-hydroxy-ethyl)-amino]-ethanol hydrochloride]
33 | 0.0472 | COc1cc2c(Oc3ccc(Nc4ccc(C(C)(C)C)cc4)cc3)ccnc2cc1OCCN1CC(C)OC(C)C1 (stereo not shown) [Compound 238, (4-Tert-butyl-phenyl)-(4-{7-[2-(2,6-dimethyl-morpholin-4-yl)-ethoxy]-6-methoxy-quinolin-4-yloxy}-phenyl)-amine]
34 | 0.0183 | CCN(CCO)CCOc1cc2nccc(Oc3ccc(NC(=O)NCCC(C)(C)C)cc3)c2cc1OC [Compound 340, 1-(3,3-Dimethyl-butyl)-3-[4-(7-{2-[ethyl-(2-hydroxy-ethyl)-amino]-ethoxy}-6-methoxy-quinolin-4-yloxy)-phenyl]-urea]
